Source: the supplement of paper PMC13380429

Key:
[1] = system: A549-ACE2 infected with SARS-CoV-2; experiment: morphology score (similarity to uninfected cells); higher = more like uninfected cells; details: 24 h
[2] = system: A549-ACE2 infected with SARS-CoV-2; experiment: SARS-CoV-2 infection rate relative to DMSO; higher = more infection; details: 24 h
HepG2 [3] = experiment: drug sensitivity score (DSS) for viability; higher = more toxic; extreme values may be limits of the assay; details: 72 h
Calu-3 [4] = experiment: as above; details: 72 h
Vero E6 [5] = experiment: as above; details: 72 h
U2OS [6] = experiment: as above; details: 72 h
Caco-2 [7] = experiment: as above; details: 72 h
[8] = system: A549-ACE2 infected with SARS-CoV-2; experiment: cell count relative to DMSO; higher = less toxic; details: 24 h
HepG2 [9] = experiment: cell viability relative to DMSO; higher = less toxic; details: 72 h
Calu-3 [10] = experiment: as above; details: 72 h
Vero E6 [11] = experiment: as above; details: 72 h
U2OS [12] = experiment: as above; details: 72 h
Caco-2 [13] = experiment: as above; details: 72 h
HepG2 [14] = experiment: relative viability EC50 (midpoint between 100% and the lowest measured viability); higher = less toxic; details: 72 h
Calu-3 [15] = experiment: as above; details: 72 h
Vero E6 [16] = experiment: as above; details: 72 h
U2OS [17] = experiment: as above; details: 72 h
A549-ACE2 = experiment: drug-induced phospholipidosis relative to tamoxifen; higher = more phospholipidosis
Caco-2 [18] = experiment: relative viability EC50 (midpoint between 100% and the lowest measured viability); higher = less toxic; details: 72 h

CCCCCC(=O)O[C@]1(C(C)=O)CC[C@H]2[C@@H]3CCC4=CC(=O)CC[C@]4(C)[C@H]3CC[C@@]21C [17-hydroxyprogesterone-caproate]
Details	SARS-CoV-2 infection rate, [2] [%]	cell count, [8] [%]	cell viability, Caco-2 [13] [%]	cell viability, Calu-3 [10] [%]	cell viability, HepG2 [9] [%]	cell viability, U2OS [12] [%]	cell viability, Vero E6 [11] [%]	morphology score, [1]
1 nM	–	–	92.7	86.9	97.1	98.1	97.8	–
10 nM	–	–	95.9	99	96.6	95.7	103	–
100 nM	–	–	107	100	98	99.7	95.1	–
0.3 µM	95	103	–	–	–	–	–	0.25
1000 nM	–	–	92.8	88.6	97.6	99.4	95.4	–
3 µM	88	104	–	–	–	–	–	0.34
10 µM	81	106	–	–	–	–	–	0.47
10000 nM	–	–	64.7	99.5	94.8	95.9	103	–
30 µM	34	104	–	–	–	–	–	0.79

Details	drug sensitivity score	relative viability EC50 [µM]
Caco-2 [7]	2.8	–
Calu-3 [4]	0	–
Calu-3 [15]	–	> 10
HepG2 [3]	0	–
HepG2 [14]	–	> 10
U2OS [6]	0	–
U2OS [17]	–	> 10
Vero E6 [5]	0	–
Vero E6 [16]	–	> 10

drug-induced phospholipidosis [%], A549-ACE2
Details	0.3 µM	0.833333 µM	3.33333 µM	6.66667 µM	10 µM	30 µM
24 h	6.66	6.09	4.63	8.81	8.05	21.5
48 h	5.77	4.75	0.98	3.88	3.43	9.55
72 h	6.76	2.38	2.24	4.3	4.77	13.6

C=CC(=O)N1CCN(C(=O)CNc2cc(I)c(Cl)cc2O)CC1 [K-Ras(G12C)-inhibitor-12]
Details	SARS-CoV-2 infection rate, [2] [%]	cell count, [8] [%]	cell viability, Caco-2 [13] [%]	cell viability, Calu-3 [10] [%]	cell viability, HepG2 [9] [%]	cell viability, U2OS [12] [%]	cell viability, Vero E6 [11] [%]	morphology score, [1]
1 nM	–	–	102	112	95.2	108	101	–
10 nM	–	–	96.3	103	98.1	96.9	107	–
100 nM	–	–	106	104	88.2	104	90.2	–
0.3 µM	74	109	–	–	–	–	–	0.34
1000 nM	–	–	88.3	75.5	72.8	96.6	54.1	–
3 µM	86	93	–	–	–	–	–	0.05
10 µM	76	93	–	–	–	–	–	0.03
10000 nM	–	–	76.6	79.5	42.8	93.5	40.1	–
30 µM	77	85	–	–	–	–	–	-0.03

Details	drug sensitivity score	relative viability EC50 [µM]
Caco-2 [7]	2.2	–
Caco-2 [18]	–	> 10
Calu-3 [4]	3.5	–
Calu-3 [15]	–	> 10
HepG2 [3]	6.5	–
HepG2 [14]	–	0.805
U2OS [6]	0	–
U2OS [17]	–	> 10
Vero E6 [5]	9.6	–
Vero E6 [16]	–	0.388

drug-induced phospholipidosis [%], A549-ACE2
Details	0.3 µM	0.833333 µM	3.33333 µM	6.66667 µM	10 µM	30 µM
24 h	8.49	7.52	10	12	13.7	24
48 h	5.08	2.66	7.02	10.2	11.5	19.6
72 h	5.88	1.74	5.37	8.06	13.5	16

CN1C2C=C(c3sccc3Br)CC1CC2 (configuration not stated) [NS-3861]
Details	SARS-CoV-2 infection rate, [2] [%]	cell count, [8] [%]	cell viability, Caco-2 [13] [%]	cell viability, HepG2 [9] [%]	cell viability, U2OS [12] [%]	cell viability, Vero E6 [11] [%]	morphology score, [1]
1 nM	–	–	101	107	97.6	98.9	–
10 nM	–	–	103	107	101	99.5	–
100 nM	–	–	92.4	97.2	95.3	99	–
0.3 µM	97	99	–	–	–	–	0
1000 nM	–	–	106	89.2	100	96.7	–
3 µM	83	109	–	–	–	–	0.45
10 µM	75	104	–	–	–	–	0.4
10000 nM	–	–	101	92.5	94.6	97.2	–
30 µM	41	113	–	–	–	–	0.77

Details	drug sensitivity score	relative viability EC50 [µM]
Caco-2 [7]	0	–
Caco-2 [18]	–	> 10
HepG2 [3]	0.3	–
HepG2 [14]	–	> 10
U2OS [6]	0	–
U2OS [17]	–	> 10
Vero E6 [5]	0	–
Vero E6 [16]	–	> 10

drug-induced phospholipidosis [%], A549-ACE2
Details	0.3 µM	0.833333 µM	3.33333 µM	6.66667 µM	10 µM	30 µM
24 h	1.11	-3.88	-0.69	-1.21	2.15	14.7
48 h	2.52	-3.07	-1.18	-0.52	-0.04	12.8
72 h	4.83	-2.54	-0.115	0.151	0.487	12.9

CN(CCOc1ccc(CC2SC(=O)NC2=O)cc1)c1ccccn1 (configuration not stated) [rosiglitazone]
Details	drug sensitivity score	relative viability EC50 [µM]
Caco-2 [7]	0.9	–
Caco-2 [18]	–	> 10
Calu-3 [4]	0	–
Calu-3 [15]	–	> 10
HepG2 [3]	0	–
HepG2 [14]	–	> 10
U2OS [6]	0	–
U2OS [17]	–	> 10
Vero E6 [5]	2.8	–
Vero E6 [16]	–	> 10

cell viability [%]
Details	Caco-2 [13]	Calu-3 [10]	HepG2 [9]	U2OS [12]	Vero E6 [11]
1 nM	99.9	105	94.9	96.7	96.3
10 nM	93	96.2	97.1	97.2	95.2
100 nM	93.9	94.6	93.5	98.1	88.3
1000 nM	81.9	102	96.5	98.5	82.1
10000 nM	90.7	108	89.5	100	81.3
